A short description of series [1]: Blood:Plasma (BP) ratio, human. The class given is in vitro ADME.
For a further series, the target named is T1, human CYP 1A2 (Homo sapiens, UniProt P05177).
T1 sequence (P05177 1-516): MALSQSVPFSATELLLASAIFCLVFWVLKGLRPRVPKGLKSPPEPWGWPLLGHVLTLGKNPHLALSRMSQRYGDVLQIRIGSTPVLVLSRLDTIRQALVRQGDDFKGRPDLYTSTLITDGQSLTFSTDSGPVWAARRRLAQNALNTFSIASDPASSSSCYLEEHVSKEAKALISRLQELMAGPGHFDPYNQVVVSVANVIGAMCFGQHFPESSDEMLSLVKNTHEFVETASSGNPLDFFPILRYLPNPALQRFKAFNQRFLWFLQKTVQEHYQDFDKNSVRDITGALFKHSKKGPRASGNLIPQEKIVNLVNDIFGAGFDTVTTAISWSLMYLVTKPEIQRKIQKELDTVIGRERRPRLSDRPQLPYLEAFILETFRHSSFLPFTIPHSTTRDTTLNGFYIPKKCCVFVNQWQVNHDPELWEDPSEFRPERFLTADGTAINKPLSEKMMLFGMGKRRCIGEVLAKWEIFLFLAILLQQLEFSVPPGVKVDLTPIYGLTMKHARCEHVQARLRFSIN
Description: CYP inhibition assay, CYP 1A2. In kind it is in vitro ADME. The protocol: (§1) This study was conducted using specific substrates for 5 major human CYP isozymes. These substrates were used as a cocktail (phenacetin, diclofenac, S-mephenytoin, bufuralol and midazolam which are predominantly metabolised by CYP 1A2, 2C9, 2C19, 2D6 and 3A4/5, respectively) at concentrations equivalent to their respective Km values. LC-MS-MS (MRM mode) was used to follow the formation of the CYP specific metabolites. A decrease in the formation of the metabolites in peak area to vehicle control was used to calculate the IC50 value. […] Test compound was used at 6 different concentrations ([…]) to estimate IC50.
(§2) The incubation was carried out in 96 deep well plates. Mixture of 180 μL of 20 mg/mL HLM and 90 μL of substrate cocktail solution was added to 15840 μL of phosphate buffer and 179 μL of this mixture was mixed with 1 μL of the test compound, inhibitor cocktail solution or vehicle in each well. The final concentration of DMSO:ACN in the assay mix was 0.3:0.7% v/v. The incubation plate was placed into the water bath and pre-warmed at 37° C. for 5 min before the reactions were started by the addition of 20 μL of 10 mmol/L NADPH solution in phosphate buffer. After the addition of NADPH, the incubation plate was incubated at 37° C. for a further 5 min. The reaction was quenched by the addition of 1 volume (200 μL) of cold ACN containing 3% formic acid and 40 nmol/L verapamil. The plates were kept on ice for 20 min and then centrifuged at 4000 rpm for 30 min to precipitate protein. The supernatant 180 μL was transferred to the analysis plate for LC/MS/MS analysis.

For the next series, the system named is hepatocytes. In words: Metabolic stability assay (hepatocyte Clint), rat. The conditions noted are these: 1 μM compound. In kind it is in vitro ADME. The protocol:
Metabolic Stability Assay (Rat/Human Hepatocyte Clint)
Viability of cryopreserved hepatocytes was determined using trypan blue and the cell concentration was adjusted to 10^6 cells per mL with Leibovitz L-15 Buffer. 1 μM compound (in Acetonitrile; 0.01% DMSO) was incubated with 500 μL of hepatocytes (1 million cells per mL) in a NUNC plate. Reaction was stopped at different time points (0, 5, 15, 30, 60, 90 and 120 min) by addition of 3 volumes of chilled acetonitrile to 100 μL of reaction mixture and centrifuged at 4° C. for 15 min. Supernatants were analyzed using LC-MS/MS for substrate depletion.

Another series concerns the target CYP3A4 (Homo sapiens, UniProt P08684). In words: CYP inhibition assay, CYP 3A4. The class given is in vitro ADME. As to conditions: probe midazolam; human liver microsomes, substrate cocktail. The protocol: as §1, §2
(In general: Liver microsomes are vesicles of endoplasmic reticulum, rich in cytochrome P450 enzymes.)

The target in a further series is T2, human CYP 2C19 (Homo sapiens, UniProt P33261).
T2 construct: Mixture of 180 μL of 20 mg/mL HLM and 90 μL of substrate cocktail solution; from tissue; host or cells: human liver microsomes (HLM)
Description: Time dependent CYP inhibition assay, CYP 2C19. In kind it is in vitro ADME.

The nature of series [2]: Prediction of hepatic blood clearance (well stirred model), rat.
A short description of series [3]: Caco-2 permeability assay. In kind it is in vitro ADME. The conditions noted are these: human; Caco-2, 10 μM, pH 6.5/7.4. The protocol:
Caco-2 Permeability Assay
Permeability in a Caco-2 monolayer was determined at 10 μM. The Caco-2 cell monolayers were washed once with HBSS. TEER was measured both before and after performing all the transport experiments. Papp was measured in apical A to basolateral B direction. Transport buffer, 800 μL (HBSS, pH 7.4) was first dispensed to the basal side of the monolayer. The assay was then initiated by adding 200 μL of compound solution to the apical side (all test compounds were diluted in HBSS, pH 6.5, with 1% DMSO as co-solvent). Two μL and 200 μL of samples were withdrawn, before and at 45 and 120 min post addition of test compound, from the apical donor compartment and the basolateral receiver compartment, respectively. The transwell plates were incubated at 37° C. on a shaker at 480 rpm inside the incubator. All samples were immediately analysed by LC-MS/MS. A passive permeability was determined by complete chemical inhibition of the three major efflux transporters, ABCB1 (P-gp), ABCG2 (BCRP) and ABCC2 (MRP2), in Caco-2 cells using a cocktail of chemical inhibitors: quinidine (P-gp), sulfasalazine (BCRP) and benzbromarone (MRP2).
The apparent permeability coefficient (Papp) was calculated according to the following equation: Papp=(ΔQ/Δt)/(A×CD)[cm/s] (1) where (ΔQ/Δt) […] is the cumulative amount of test compound transported over time to the basolateral (receiver) side, A is the surface area of the monolayer membrane (cm^2) and CD is the average drug concentration in the donor chamber over the period for which (ΔQ/Δt) was determined.
A general note: Passage across Caco-2 layers is used to estimate intestinal permeability.

The target of the next series is human CYP 2C9 (Homo sapiens, UniProt P11712). Description: CYP inhibition assay, CYP 2C9. The class given is in vitro ADME. The protocol:
as §1, §2

In the next series the target is T3, human CYP 2D6 (Homo sapiens, UniProt P10635).
T3 construct: Mixture of 180 μL of 20 mg/mL HLM and 90 μL of substrate cocktail solution; from tissue; host or cells: human liver microsomes (HLM)
In words: Time dependent CYP inhibition assay, CYP 2D6. In kind it is in vitro ADME.

Where [4] appears, read: human liver microsomes, substrate cocktail, read-out: IC50 CYP 1A2.
[5] abbreviates: human liver microsomes, substrate cocktail, read-out: IC50 CYP 2C9.

Where a name gives a salt, the structure may show the parent alone. Read-outs that look alike come from different tables or passages of the source.

By IC50 is commonly meant the midpoint of a concentration-inhibition curve. By Papp A→B is commonly meant how fast a substance crosses the layer from the apical side. Low readings indicate slow passage, high ones fast passage.

human CYP 2C9, sequence (P11712 whole entry): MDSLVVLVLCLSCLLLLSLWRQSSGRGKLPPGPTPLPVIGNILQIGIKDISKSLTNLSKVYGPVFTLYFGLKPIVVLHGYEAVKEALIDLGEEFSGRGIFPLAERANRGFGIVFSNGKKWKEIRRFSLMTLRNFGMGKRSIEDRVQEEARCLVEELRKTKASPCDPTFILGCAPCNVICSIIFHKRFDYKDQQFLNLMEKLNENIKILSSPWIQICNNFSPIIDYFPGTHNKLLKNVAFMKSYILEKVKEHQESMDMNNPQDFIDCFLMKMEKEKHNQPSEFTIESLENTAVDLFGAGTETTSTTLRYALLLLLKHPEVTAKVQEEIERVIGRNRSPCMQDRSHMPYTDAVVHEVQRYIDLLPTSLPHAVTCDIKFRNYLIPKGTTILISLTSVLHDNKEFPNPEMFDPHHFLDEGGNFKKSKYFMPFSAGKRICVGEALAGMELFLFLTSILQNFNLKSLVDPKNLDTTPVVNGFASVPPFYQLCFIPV
T2 sequence (P33261 whole entry): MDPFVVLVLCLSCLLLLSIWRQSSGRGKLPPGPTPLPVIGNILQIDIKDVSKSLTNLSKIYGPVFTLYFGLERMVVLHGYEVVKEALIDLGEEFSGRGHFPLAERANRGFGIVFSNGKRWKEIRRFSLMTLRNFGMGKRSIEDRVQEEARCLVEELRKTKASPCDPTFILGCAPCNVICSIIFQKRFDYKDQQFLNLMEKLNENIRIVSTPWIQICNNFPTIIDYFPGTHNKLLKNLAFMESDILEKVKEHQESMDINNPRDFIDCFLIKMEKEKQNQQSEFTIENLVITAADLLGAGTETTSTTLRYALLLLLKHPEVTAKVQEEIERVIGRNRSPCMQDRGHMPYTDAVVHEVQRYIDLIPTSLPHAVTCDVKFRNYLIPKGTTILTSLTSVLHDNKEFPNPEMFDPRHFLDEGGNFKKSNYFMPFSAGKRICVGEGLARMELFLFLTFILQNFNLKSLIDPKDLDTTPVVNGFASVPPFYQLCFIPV
T3 sequence (P10635 whole entry): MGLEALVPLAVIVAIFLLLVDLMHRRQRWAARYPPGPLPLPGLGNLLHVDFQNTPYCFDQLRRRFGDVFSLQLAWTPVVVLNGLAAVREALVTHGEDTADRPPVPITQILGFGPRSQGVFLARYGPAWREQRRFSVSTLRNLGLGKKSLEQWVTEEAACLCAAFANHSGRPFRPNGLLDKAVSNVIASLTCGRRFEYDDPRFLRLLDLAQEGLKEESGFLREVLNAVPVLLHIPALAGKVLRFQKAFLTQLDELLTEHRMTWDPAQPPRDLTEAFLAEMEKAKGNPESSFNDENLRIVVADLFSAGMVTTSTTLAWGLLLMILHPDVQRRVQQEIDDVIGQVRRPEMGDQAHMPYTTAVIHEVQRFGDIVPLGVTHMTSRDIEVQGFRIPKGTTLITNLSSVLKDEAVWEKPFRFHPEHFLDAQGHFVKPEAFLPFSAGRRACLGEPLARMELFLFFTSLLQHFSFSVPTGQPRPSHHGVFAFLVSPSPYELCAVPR
CYP3A4, sequence (P08684 2-503): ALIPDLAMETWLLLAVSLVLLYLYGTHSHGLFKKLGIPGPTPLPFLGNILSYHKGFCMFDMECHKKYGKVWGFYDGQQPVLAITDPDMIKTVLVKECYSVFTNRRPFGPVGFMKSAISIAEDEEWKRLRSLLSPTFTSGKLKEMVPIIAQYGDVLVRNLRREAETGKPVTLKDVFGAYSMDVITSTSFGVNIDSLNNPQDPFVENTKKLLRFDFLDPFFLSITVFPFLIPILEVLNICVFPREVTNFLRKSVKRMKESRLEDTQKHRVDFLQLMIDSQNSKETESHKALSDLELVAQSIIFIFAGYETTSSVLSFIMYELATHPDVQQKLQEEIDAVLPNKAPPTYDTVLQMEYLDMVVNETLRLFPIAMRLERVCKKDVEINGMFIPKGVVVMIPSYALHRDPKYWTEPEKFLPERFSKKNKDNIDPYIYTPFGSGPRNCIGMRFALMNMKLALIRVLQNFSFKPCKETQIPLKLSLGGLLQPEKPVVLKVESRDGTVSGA

On to `Cc1nc(Nc2ncc(N3CCN[C@H](C)C3)c(Nc3cnn(C)n3)n2)cc(C2CC2)c1Cl` [Example 10, (R)—N2-(5-chloro-4-cyclopropyl-6-methylpyridin-2-yl)-N4-(2-methyl-2H-1,2,3-triazol-4-yl)-5-(3-methylpiperazin-1-yl)pyrimidine-2,4-diamine dihydochloride], for which, in [1], the BP ratio amounted to 1.8. For the same molecule, the half-inhibitory concentration (IC50) on human CYP 1A2 (setting [4]) is > 30 µM; on human CYP 2C19, > 56 µM; at human CYP 2C9 (setting [5]), > 30 µM; against human CYP 2D6 it was > 56 µM. Besides, the “Hep. Clint” value in the series with hepatocytes is listed as 8.3 μl/min/1E6. The IC50 at 5 min against CYP3A4 is > 30 µM. Besides, the “Predicted CLh blood” value in series [2] was 16.10 mL/min/kg. The Papp A→B at 120 min, 10 μM in [3] stood at 3.8 ×10⁻⁶ cm/s.

As to `CCc1cc(Nc2ncc(N3CCN[C@H](C)C3)c(Nc3cc(C)n(C)n3)n2)nc(C)c1F` [Example 7, (R)—N4-(1,5-dimethyl-1H-pyrazol-3-yl)-N2-(4-ethyl-5-fluoro-6-methylpyridin-2-yl)-5-(3-methylpiperazin-1-yl)pyrimidine-2,4-diamine dihydrochloride], in series [1], the BP ratio came to 1.3. The IC50 at human CYP 1A2 is > 30 µM; at human CYP 2C19, > 56 µM; against human CYP 2C9, > 30 µM; on human CYP 2D6, > 56 µM. The “Hep. Clint” value with hepatocytes amounted to 5.6 μl/min/1E6. Besides, the IC50 at 5 min at CYP3A4 is > 30 µM. In addition, the “Predicted CLh blood” value in series [2] is 24.20 mL/min/kg. In addition, in [3], the Papp A→B at 120 min, 10 μM amounted to 5 ×10⁻⁶ cm/s.

For `Cc1nc(Nc2ncc(N3CCN(C)[C@H](C)C3)c(Nc3cc(C)n(C)n3)n2)cc(C2CC2)c1F` [Example 13, (R)—N2-(4-cyclopropyl-5-fluoro-6-methylpyridin-2-yl)-N4-(1,5-dimethyl-1H-pyrazol-3-yl)-5-(3,4-dimethylpiperazin-1-yl)pyrimidine-2,4-diamine], in series [1], the BP ratio is given as 1.1. Further, the IC50 on human CYP 1A2 (setting [4]) is > 30 µM; on human CYP 2C19, > 56 µM; at human CYP 2C9 (setting [5]), > 30 µM; at human CYP 2D6 it was > 56 µM. For the same molecule, the “Hep. Clint” value in the series on hepatocytes is given as 11.3 μl/min/1E6. The IC50 at 5 min at CYP3A4 was > 30 µM. Moreover, the “Predicted CLh blood” value in [2] is 18.80 mL/min/kg. Besides, the Papp A→B at 120 min, 10 μM in series [3] turned out to be 19.5 ×10⁻⁶ cm/s.

(Values after US9957253B2, “Triaminopyrimidine compounds useful for preventing or treating malaria” (MMV MEDICINES FOR MALARIA VENTURE, priority 2014, dated 2018).)
